These results are taken from publication PMC11085077, “Designing Antitrypanosomal and Antileishmanial BODIPY Derivatives: A Computational and In Vitro Assessment” (Molecules, 2024).

A short description of series [1]: Solubility in water (statement). The class given is physicochemical.
Another series has as its system T. brucei BSF. The series can be described thus: Antitrypanosomal activity, alamarBlue assay. Format: cell-based, Trypanosoma brucei. As to conditions: for Selectivity Index (SI) T. brucei: SI = IC50 MRC-5/IC50 parasite; for IC50: bloodstream form, 72 h incubation, alamarBlue, error reported as σ; for antitrypanosomal activity (in words): classification used for docking analysis. The method, then:
The in vitro antitrypanosomal and antileishmanial activity of the BODIPY derivatives were evaluated on the bloodstream form (BSF) of T. brucei and the promastigote form of L. major parasites. The toxicity of the compounds was determined after 72 h of incubation using the alamarBlue assay (for T. brucei) and the MTT assay (for L. major). The cytotoxicity of the compounds on a healthy human cell line (human lung fibroblast, MRC-5) was also determined after 72 h of incubation using the alamarBlue assay. The data were expressed as the half maximal inhibitory concentration (IC50). The selectivity index (SI) of each derivative was calculated by dividing the IC50 of MRC-5 cells into the IC50 of T. brucei or L. major.
T. brucei (Lister 427, antigenic type MiTat 1.2, clone 221a, bloodstream forms, “single marker” S427 (S16)) were cultured at 37 °C, 5% CO2 in HMI-9 medium supplemented with 10% heat-inactivated fetal bovine serum (hiFBS, Invitrogen, Carlsbad, CA, USA), as previously described.
The antitrypanosomal activity of the BODIPY derivatives was determined by the alamarBlue® assay (ThermoFisher Scientific, Waltham, MA, USA). The stock solutions of the compounds were prepared in DMSO and the final DMSO percentage in each well was adjusted to be less than 1%. A total of 2 × 10^4 parasites per mL were incubated at 37 °C, 5% CO2 in 96-well plates (50 μL/well) alone or in the presence of an increasing concentration of compounds for 72 h. A total of 20 μL of resazurin solution (110 ng/mL) was then added to each well, and the parasites were incubated for 4 h at 37 °C. Finally, cells were lysed with 50 μL per well of SDS 3%. The plate was incubated at 37 °C for an extra hour and then, fluorescence intensity was measured with an Infinite F200 plate reader (Tecan Austria, GmbH, Grödig, Austria), exciting at 550 nm and recording the emission at 590 nm. The results are expressed as the concentration of a compound that reduces cell growth by 50% versus untreated control cells (IC50). Data are presented as the average of at least three independent measurements, all conducted in triplicate conditions.
(Alamar Blue is a resazurin reagent that responds to reducing activity.)

Series [2] has as its system MRC-5 cell line (human lung fibroblast). The series can be described thus: Cytotoxicity, alamarBlue assay. Format: cell-based. As to conditions: 72 h incubation, error reported as σ. The method, then:
The in vitro antitrypanosomal and antileishmanial activity of the BODIPY derivatives were evaluated on the bloodstream form (BSF) of T. brucei and the promastigote form of L. major parasites. The toxicity of the compounds was determined after 72 h of incubation using the alamarBlue assay (for T. brucei) and the MTT assay (for L. major). The cytotoxicity of the compounds on a healthy human cell line (human lung fibroblast, MRC-5) was also determined after 72 h of incubation using the alamarBlue assay. The data were expressed as the half maximal inhibitory concentration (IC50). The selectivity index (SI) of each derivative was calculated by dividing the IC50 of MRC-5 cells into the IC50 of T. brucei or L. major. MRC-5 cell line (human lung fibroblast) was grown in a monolayer at 37 °C, 5% CO2 in DMEM medium (1 g/L glucose) supplemented with 10% hiFBS, 100 U/mL penicillin, […] and 2 mM L-glutamine. Cytotoxicity was measured in MRC-5 through alamarBlue® assay (ThermoFisher Scientific). The stock solutions of the compounds were prepared in DMSO and the final DMSO percentage in each well was adjusted to be less than 1%. A total of 5 × 10^3 cells per mL were seeded in 96-well plates (100 μL/well) with 24 h of incubation time before compound addition at 37 °C, 5% CO2. Then, the compounds were added at increasing concentrations (from 0 to 100 μM) and the plates were incubated for 72 h. A total of 20 μL of resazurin solution (110 ng/mL) was added to each well and cells were incubated for 4 h. Then, cells were lysed with 50 μL/well of 3% SDS. The plate was incubated at 37 °C for an extra hour and then, the fluorescence intensity was measured at the Infinite F200 plate reader (TECAN Austria, GmbH), exciting at 550 nm and recording the emission at 590 nm. The results are expressed as the concentration of a compound that reduces cell growth by 50% versus untreated control cells (IC50). Data are presented as the average of at least three independent measurements, all conducted in triplicate conditions.

A further series deals with L. major promastigotes. As to the kind of experiment: Antileishmanial activity, MTT-based assay. As to conditions: for IC50: promastigotes, 72 h incubation, MTT, error reported as σ; for Selectivity Index (SI) L. major: SI = IC50 MRC-5/IC50 parasite; for antileishmanial activity (in words): classification used for docking analysis. The class given is cell-based, Leishmania major. The method, then: The in vitro antitrypanosomal and antileishmanial activity of the BODIPY derivatives were evaluated on the bloodstream form (BSF) of T. brucei and the promastigote form of L. major parasites. The toxicity of the compounds was determined after 72 h of incubation using the alamarBlue assay (for T. brucei) and the MTT assay (for L. major). The cytotoxicity of the compounds on a healthy human cell line (human lung fibroblast, MRC-5) was also determined after 72 h of incubation using the alamarBlue assay. The data were expressed as the half maximal inhibitory concentration (IC50). The selectivity index (SI) of each derivative was calculated by dividing the IC50 of MRC-5 cells into the IC50 of T. brucei or L. major. L. major (MHOM/IL/80/Friedlin) promastigotes were cultured at 28 °C, 5% CO2 in modified RPMI-1640 medium (Invitrogen, Carlsbad, CA, USA) supplemented with 10% hiFBS [49]. Parasites were maintained in culture in their […] growth phase (below 2 million parasites per mL for T. brucei and 10 million parasites per mL for L. major). The antileishmanial activity of the BODIPY derivatives was assessed using an MTT-based assay (Sigma-Aldrich, St. Louis, MO, USA). The stock solutions of the compounds were prepared in DMSO and the final DMSO percentage in each well was adjusted to be less than 1%. A total of 4 × 10^6 parasites per mL were incubated at 28 °C in 96-well plates (50 μL/well) alone or in the presence of an increasing concentration of compounds DMSO for 72 h. A total of 10 μL of MTT (5 mg/mL) were added to each well and parasites were incubated for 4 h at 28 °C. Finally, cells were lysed with 50 μL/well of 20% SDS. The plate was incubated at 37 °C for an extra hour and then, absorbance was measured at the Infinite F200 plate reader (TECAN Austria, GmbH, Grödig, Austria) at a wavelength of 540 nm. The IC50 was calculated as described above. Data are presented as the average of at least three independent measurements, all conducted in triplicate conditions.
(Formazan colour is commonly taken as a measure of viable cells.)

A further series has as its system Trypanosoma brucei. Conditions: read-out: inhibitory concentration against T. brucei; cited from earlier work.
A further series relates to Leishmania major. Conditions: read-out: inhibitory concentration against L. major; cited from earlier work.
Setting [3] is: MRC5, healthy human lung fibroblasts.

Molecules are shown by their SMILES. “And” between values parts separate entries of the source, which are not always exact repeats. Identical values can stand only once.

As for `CC1=C(I)C(C)=[N+]2C1=C(c1c3ccccc3cc3ccccc13)c1c(C)c(I)c(C)n1[B-]2(F)F` [Compound 4c], the “solubility in water (in words)” value in series [1] is recorded as “low solubility in water”. In addition, in the series on T. brucei BSF, the “Selectivity Index (SI) T. brucei” value is recorded as 1.72. Besides, the IC50 is 28.1 ± 1.77 µM in the series on T. brucei BSF (Trypanosoma brucei), 48.2 ± 1.13 µM in series [2] (setting [3]) and more than 50 µM in the series on L. major promastigotes (Leishmania major). For the same molecule, the “Selectivity Index (SI) L. major” value in the series with L. major promastigotes is on record as less than 0.96.

As for `CC1=CC(C)=[N+]2C1=C(c1ccc(N(C)C)c3ccccc13)c1c(C)c(C=O)c(C)n1[B-]2(F)F` [Compound 2b], in the series on T. brucei BSF, the “Selectivity Index (SI) T. brucei” value is 24 and 24.34; the IC50 turned out to be 2.84 ± 0.04 µM; the “antitrypanosomal activity (in words)” value is on record as “present antitrypanosomal activity”. The molecule further had an IC50 in series [2] (healthy human lung fibroblasts) of 69.1 ± 4.9 µM. Further, in the series with L. major promastigotes, the “Selectivity Index (SI) L. major” value is reported as 4.39, the “antileishmanial activity (in words)” value is reported as “present antileishmanial activity” and the IC50 is 15.8 ± 1.31 µM.

Turning to `CC1=C(C=O)C(C)=[N+]2C1=C(c1c3ccccc3cc3ccccc13)c1c(C)c(C=O)c(C)n1[B-]2(F)F` [Compound 3c], in the series on T. brucei BSF, the “Selectivity Index (SI) T. brucei” value is reported as 1.53 and the “antitrypanosomal activity (in words)” value is listed as “present antitrypanosomal activity”. For the same molecule, the IC50 in the series with T. brucei BSF (Trypanosoma brucei) is 14.2 ± 0.31 µM. In addition, the IC50 in series [2] (setting [3]) worked out at 21.7 ± 3.46 µM. The molecule also had an IC50 in the series on L. major promastigotes (Leishmania major) of 3.13 ± 0.13 µM. Moreover, in the series on L. major promastigotes, the “Selectivity Index (SI) L. major” value came to 6.91 and the “antileishmanial activity (in words)” value is on record as “present antileishmanial activity”.

Consider `CC1=CC(C)=[N+]2C1=C(c1cc3sccc3s1)c1c(C)cc(C)n1[B-]2(F)F` [Compound 1i], for which the “Selectivity Index (SI) T. brucei” value in the series with T. brucei BSF stood at 1.58. In addition, the IC50 came out at 61.5 ± 10.9 µM with T. brucei BSF, 96.8 ± 4.5 µM in series [2] (healthy human lung fibroblasts) and 92.2 ± 10 µM in the series with L. major promastigotes. Besides, the “Selectivity Index (SI) L. major” value in the series on L. major promastigotes came to 1.05.

For the molecule `CN(Cc1cnc2nc(N)nc(N)c2n1)c1ccc(C(=O)N[C@@H](CCC(=O)O)C(=O)O)cc1` [methotrexate], the IC50 was 2.7 µM in the series on Trypanosoma brucei and 3.6 µM in the series on Leishmania major.

On to `CC1=C(C=O)C(C)=[N+]2C1=C(c1ccc(N(c3ccccc3)c3ccccc3)cc1)c1c(C)cc(C)n1[B-]2(F)F` [Compound 2d], for which, in the series with T. brucei BSF, the “Selectivity Index (SI) T. brucei” value is on record as 3.56 and the IC50 turned out to be 22.7 ± 1.88 µM. This molecule also registered an IC50 in series [2] (healthy human lung fibroblasts) of 81.1 ± 3.9 µM. In the series on L. major promastigotes, the “Selectivity Index (SI) L. major” value is less than 0.81 and the IC50 was more than 100 µM.
